How the values were obtained:
BE(2)-C cells [1] = assay: Flow cytometric analysis of LysoTracker DND-99 staining (lysosomal accumulation); format: cell-based, human; conditions: 24 h
Method: Six days after siRNA transfection or 24 h after treatment with HDAC or lysosomal inhibitors, cells were stained for 1 h with 50 nM LysoTracker® Red DND-99 in medium under standard cell culture conditions. Cells were washed with ice-cold RPMI w/o phenol-red and detached using Trypsin/EDTA for 3 minutes at 37 °C. Cells were centrifuged, resuspended in RPMI w/o phenol red and LysoTracker® Red fluorescence was quantified on a BD FACSCanto II platform using the PE filter setting.

BE(2)-C cells [2] = assay: Flow cytometric quantification of intracellular doxorubicin accumulation, BE(2)-C; format: cell-based, human
Method: For flow cytometric quantification of intracellular doxorubicin after HDAC6/10 inhibition, BE(2)-C, SK-N-AS, IMR-32, HAP1 wild type and HDAC10 knockout cells were seeded in 6-well dishes at a density of 1.5 ∗ 10^5 cells/well (BE(2)-C and SK-N-AS, HAP1) and 3 ∗ 10^5 cells/well (IMR-32). Cells were treated with 25 ng/ml, 50 ng/ml, 100 ng/ml or 1 µg/ml doxorubicin, respectively, for 3–48 h (see respective figure legend). Where indicated, cells were co-treated with HDAC6/10 or lysosomal inhibitors. In case of co-treatment with vacuolin-1, vacuolin-1 was directly added to cells under doxorubicin treatment 1 h or 24 h prior to analysis. Flow cytometric quantification of intracellular doxorubicin after HDAC6, HDAC10 or P-glycoprotein knockdown in BE(2)-C cells was performed 5 days (P-glycoprotein) or 6 days (HDAC6/10) after transfection with siRNA. To that end, cells were seeded 3–4 days after transfection into 6-well dishes at 1.5 ∗ 10^5 cells per well and treated with 100 ng/ml doxorubicin +/− HDAC6/10 and lysosomal inhibitors for the last 24 h. After doxorubicin treatment, BE(2)-C, SK-N-AS, IMR-32 and HAP1 cells were washed with ice-cold RPMI w/o phenol-red and detached using Trypsin/EDTA for 3 minutes at 37 °C. Cells were centrifuged, resuspended in RPMI w/o phenol red and doxorubicin fluorescence was quantified on a BD FACSCanto II platform using the PE filter setting.

[3] = test system: proliferating human fibroblasts; assay: Flow cytometric analysis of cellular doxorubicin fluorescence, fibroblasts; format: cell-based; conditions: 100 ng/ml doxorubicin 48 h; tubastatin A 7.5 µM, vacuolin-1 10 µM, verapamil 10 µM
BE(2)-C cells [4] = assay: Cell viability, automated trypan blue exclusion, BE(2)-C; format: cell-based, human
Method: Adherent cell lines were trypsinized and cells were pooled with corresponding supernatant, centrifuged and resuspended in 1.5 ml cell culture media. Cell viability was measured by automated trypan blue staining with the Vi-Cell XR Cell Viability Analyzer from Beckman Coulter (Krefeld, Germany).

BE(2)-C cells [5] = assay: Flow cytometric analysis of γH2A.X staining (DNA double-strand breaks); format: cell-based, human; conditions: 24 h, tubastatin A 7.5 µM, vacuolin-1 10 µM
Method: Cells were dissociated from dishes using non-enzymatic cell dissociation reagent for five minutes. Cells were counted using a ViCell XR automatic cell counter (Beckmann Coulter) and 2.5 ∗ 10^5 cells were transferred into a pre-cooled 96-well round bottom plate (TPP92097). […] Cells were washed three times in FACS buffer (5% FBS in PBS) after each antibody incubation step. For evaluation of DNA double-strand breaks, cells were detached from dishes using trypsin, counted using a ViCell XR automatic cell counter (Beckmann Coulter) and transferred into a pre-cooled 96-well round bottom plate (4 ∗ 10^6 cells/well). Cells were fixed and permeabilized using the eBioscience^TM Foxp3/Transcription Factor Staining Buffer Set (Thermo Fisher Scientific). […] Cells were washed three times in 1× permeabilization buffer after each antibody incubation step and fluorescence was quantified on a BD FACSCanto II platform.

Compound: CN1CCc2c(c3ccccc3n2Cc2ccc(C(=O)NO)cc2)C1 [tubastatin A]
- lysosomal accumulation (LysoTracker staining) (BE(2)-C cells [1]; bufexamac 30 µM, tubastatin A 7.5 µM, tubacin 7.5 µM, VPA 1 mM, vacuolin-1 10 µM): caused lysosomal accumulation
- lysosomal accumulation on combination with vacuolin-1 compared to vacuolin-1 alone (BE(2)-C cells [1]; tubastatin A 7.5 µM + vacuolin-1 10 µM): no additional lysosomal accumulation
- intracellular doxorubicin after co-treatment (BE(2)-C cells [2]; 100 ng/ml doxorubicin, 48 h, bufexamac 30 µM, tubastatin A 7.5 µM, tubacin 7.5 µM): increased intracellular doxorubicin
- intracellular doxorubicin levels, short-term (BE(2)-C cells [2]; 12 h pre-treatment with inhibitor, then 1 µg/ml doxorubicin for 3 h): increased intracellular doxorubicin levels
- intracellular doxorubicin in fibroblasts [3]: did not exhibit strongly increased intracellular doxorubicin
- viability of BE(2)-C cells, single treatment (BE(2)-C cells [4]; 100 ng/ml doxorubicin, 7.5 µM tubastatin A or vacuolin-1 alone): did not substantially reduce cell viability
- viability of BE(2)-C cells, combination with 100 ng/ml doxorubicin, 24 h or 48 h (BE(2)-C cells [4]; 7.5 µM tubastatin A): strongly reduced viability
- DSBs (γH2A.X), co-treatment with doxorubicin compared to doxorubicin alone (BE(2)-C cells [5]; 100 ng/ml doxorubicin): significantly increased the amount of DSBs
- DSBs (γH2A.X), treatment alone in the absence of doxorubicin (BE(2)-C cells [5]; verapamil 10 µM): increase DSBs
